Read-outs that look alike come from different tables or passages of the source.
Columns and labels:
[1] = system: murine CT26 colon carcinoma cells; assay: RIG-I dependent CXCL10 secretion by CT26 cells (ELISA); assay type: cell-based; settings: supernatant 24 h after stimulation
Protocol: (§1) The CT26 murine colon carcinoma cell line (ATCC) was used to evaluate the induction of CXCL10 secretion. CXCL10 is an important chemokine in tumor immune biology that recruits tumor-specific T cells to the tumor. To confirm that compound-mediated CXCL10 production was RIG-I specific, RIG-1 deficient CT2-RIG-I−/−cells were generated by Kineta Inc. using CRISPR technology.
(§2) CT26 cells were seeded at a density of 1×10^4 cells per well on a 96-well tissue culture plate in 100 μL of cell culture and cells were incubated at 37° C. and 5% CO2 for 24 hr. Next, CT26 cells were treated with compounds at the indicated concentrations. CXCL10 was quantified by ELISA from supernatants taken 24 h after compound stimulation by use of the CXCL10 Duo Set ELISA kit (Cat #DY466, R&D, Minneapolis, Minn., USA) according to the manufacturer's instructions.
(§3) CXCL10 secretion by CT26 cells in response to compounds (in an amount of 5 to 20 μM) of the present disclosure is shown in Table 8. The compound-induced CXCL10 production was RIG-I dependent, since none of the compounds mediated CXCL10 secretion in RIG-I deficient CT26 RIG-I−/−cells (about 0 pg/mL of CXCL10, or below the level of quantitation). The compounds (10 μM, *20 μM, **5 μM) are indicated in the table as follows: “≠” indicates less than 100 pg/mL; “+” indicates 100-199 pg/mL; “++” indicates 200-399 pg/mL; “+++” indicates 400-799 pg/mL; “++++” indicates 800 to 1599 pg/mL; “+++++” indicates greater than or equal to 1600 pg/ml.

[2] = system: IRF3 signaling pathway in THP1-Lucia™ ISG cells; assay: THP1-Lucia ISG reporter assay: induction of IRF3-dependent gene expression (secreted luciferase); assay type: cell-based, human; settings: Homo sapiens, THP1-Lucia ISG, read-out: fold increase of IRF3-dependent luciferase activity over background, THP1 ISG
Protocol: The compounds were evaluated in the THP1-Lucia™ ISG (interferon stimulated genes) reporter assay to determine if the compounds activate the IRF3 signaling pathway. The THP1-Lucia™ cells (InvivoGen) express the secreted luciferase (Lucia) reporter gene under the control of an IRF-inducible promoter. The reporter cell line was developed from human monocytic leukemia THP-1 cells.
The promoter was comprised of five IFN-stimulated response elements (ISRE) fused to an ISG54 minimal promoter which is unresponsive to NF-kB or AP-1 pathways. […] The IRF3-deficient THP1-Lucia™ ISG IRF3−/−reporter cell line was generated by CRISPR technology from the parent THP1-Lucia™ ISG reporter cell line.
THP1-Lucia™ ISG cells and IRF3-deficient THP1-Lucia™ ISG IRF3−/−cells were differentiated with PMA (100 ng/ml) and stimulated with compounds at the indicated concentrations (5 to 20 μM), positive control, or not treated (background). Luciferase secretion was quantified using the QUANTI-Luc luciferase assay system (InvivoGen) 18 h after stimulation. Data are shown as fold increase luciferase activity over background in Table 7 and represent the IRF3-dependent ISG54 promoter activity by the THP1-Lucia™ ISG cells in response to compounds. […] The fold increase of compounds (10 μM, *20 μM, **5 μM) induced IRF3 dependent luciferase activity is indicated as follows: “≠” indicates less than 2.4 fold increase; “+” indicates a 2.4-4.9 fold increase; “++” indicates a 5-9.9 fold increase; “+++” indicates a 10-19 fold increase; “++++” indicates a 20-39 fold increase; “+++++” indicates greater than or equal to 40 fold increase.

[3] = system: RIG-I deficient CT26 RIG-I−/− cells; assay: CXCL10 secretion by RIG-I deficient CT26 RIG-I−/− cells (ELISA); assay type: cell-based, murine; settings: compound 5 to 20 μM, 24 h
Protocol: as §1, §2, §3

[4] = 10 μM compound, PMA-differentiated cells, 18 h after stimulation
[5] = 20 μM compound (*), PMA-differentiated cells, 18 h after stimulation

Row | SMILES | CXCL10 secretion, CT26 ([1]; 10 μM compound) | fold induction at 10 µM [2, 4] | CXCL10 secretion, CT26 RIG-I−/− [3] | fold induction at 20 µM [2, 5] | CXCL10 secretion, CT26 ([1]; 20 μM compound (*)) | fold induction at 10 µM ([2]; 18 h) | fold induction at 20 µM ([2]; 18 h)
1 | Cn1c(C(=O)Nc2cc3ccc4scnc4c3s2)cc2ccccc21 [Example 71, N-{5,12-dithia-3-azatricyclo[7.3.0.0^2,^6]dodeca-1,3,6,8,10-pentaen-11-yl}-1-methyl-1H-indole-2-carboxamide] | + (100-199 pg/mL) |  |  |  |  |  | 
2 | COc1nc2c(ccc3nc(NC(=O)c4cc5ccccc5cc4OCCCN4CCOCC4)sc32)s1 [Example 31, N-{11-methoxy-3,10-dithia-5,12-diazatricyclo[7.3.0.0^2,^6]dodeca-1,4,6,8,11-pentaen-4-yl}-3-[3-(morpholin-4-yl)propoxy]naphthalene-2-carboxamide] | ++ (200-399 pg/mL) | 5 to 9.9 | − |  |  |  | 
3 | O=C(Nc1nc2ccc3scnc3c2s1)c1cccc(C(F)(F)F)c1 [Example 8, N-{3,10-dithia-5,12-diazatricyclo[7.3.0.0^2,^6]dodeca-1,4,6,8,11-pentaen-4-yl}-3-(trifluoromethyl)benzamide] |  |  | − | 10 to 19 | +* (100-199 pg/mL) |  | 
4 | O=C(Nc1nc2ccc3scnc3c2s1)c1ccc2occc2c1 [Example 15, N-{3,10-dithia-5,12-diazatricyclo[7.3.0.0^2,^6]dodeca-1,4,6,8,11-pentaen-4-yl}-1-benzofuran-5-carboxamide] | ++ (200-399 pg/mL) |  | − | 2.4 to 4.9 |  |  | 
5 | CCN(CC)S(=O)(=O)c1ccc(C(=O)Nc2nc3ccc4sc(C)nc4c3s2)cc1 [Example 3, 4-(diethylsulfamoyl)-N-{11-methyl-3,10-dithia-5,12-diazatricyclo[7.3.0.0^2,^6]dodeca-1,4,6,8,11-pentaen-4-yl}benzamide] |  |  | − | 5 to 9.9 | ++* (200-399 pg/mL) |  | 
6 | O=C(Nc1nc2ccc3scnc3c2s1)c1cc2ccccc2cc1OCCN1CCNCC1 [Example 47, N-{3,10-Dithia-5,12-diazatricyclo[7.3.0.0^2,6]dodeca-1,4,6,8,11-pentaen-4-yl}-3-[2-(piperazin-1-yl)ethoxy]naphthalene-2-carboxamide] | + (100-199 pg/mL) | 2.4 to 4.9 | − |  |  |  | 
7 | O=C(Nc1nc2ccc3scnc3c2s1)c1ccc2c(c1)OCO2 [Example 4, N-{3,10-dithia-5,12-diazatricyclo[7.3.0.0^2,^6]dodeca-1,4,6,8,11-pentaen-4-yl}-2H-1,3-benzodioxole-5-carboxamide] | +++ (400-799 pg/mL) |  | − |  |  | 10 to 19 | 
8 | Cc1nc2c(ccc3nc(NC(=O)c4ccc(N(C)C)cc4)sc32)s1 [Example 6, 4-(dimethylamino)-N-{11-methyl-3,10-dithia-5,12-diazatricyclo[7.3.0.0^2,^6]dodeca-1,4,6,8,11-pentaen-4-yl}benzamide] | ++ (200-399 pg/mL) | 10 to 19 | − |  |  |  | 
9 | O=C(Nc1nc2ccc3scnc3c2s1)c1ccc2c(c1)CCCC2 [Example 13, N-{3,10-dithia-5,12-diazatricyclo[7.3.0.0^2,^6]dodeca-1,4,6,8,11-pentaen-4-yl}-5,6,7,8-tetrahydronaphthalene-2-carboxamide] | +++ (400-799 pg/mL) |  | − |  |  |  | 5 to 9.9
10 | CSc1nc2c(ccc3nc(NC(=O)c4cc5ccccc5cc4OCCN4CCOCC4)sc32)s1 [Example 35, N-[11-(methylsulfanyl)-3,10-dithia-5,12-diazatricyclo[7.3.0.0^2,^6]dodeca-1,4,6,8,11-pentaen-4-yl]-3-[2-(morpholin-4-yl)ethoxy]naphthalene-2-carboxamide] |  | 5 to 9.9 | − |  | ++* (200-399 pg/mL) |  | 
11 | O=C(Nc1nc2ccc3scnc3c2s1)c1ccc(-c2ccccc2)cc1OCCCCN1CCOCC1 [Example 38, N-{3,10-dithia-5,12-diazatricyclo[7.3.0.0^2,^6]dodeca-1,4,6,8,11-pentaen-4-yl}-3-[4-(morpholin-4-yl)butoxy]-[1,1′-biphenyl]-4-carboxamide] | +++ (400-799 pg/mL) | 5 to 9.9 | − |  |  |  | 
12 | COc1cc2ccccc2cc1C(=O)Nc1nc2ccc3scnc3c2s1 [Example 16, N-{3,10-dithia-5,12-diazatricyclo[7.3.0.0^2,^6]dodeca-1,4,6,8,11-pentaen-4-yl}-3-methoxynaphthalene-2-carboxamide] | ++ (200-399 pg/mL) | 10 to 19 | − |  |  |  | 
13 | O=C(Nc1nc2ccc3scnc3c2s1)c1cc2ccccc2cc1OCCN1CC2CC1CO2 (stereo not shown) [Example 33, N-{3,10-dithia-5,12-diazatricyclo[7.3.0.0^2,^6]dodeca-1,4,6,8,11-pentaen-4-yl}-3-(2-{2-oxa-5-azabicyclo[2.2.1]heptan-5-yl}ethoxy)naphthalene-2-carboxamide] | ++++ (800 to 1599 pg/mL) |  | − | 10 to 19 |  |  | 
14 | O=C(Nc1nc2ccc3scnc3c2s1)c1cc2ccccc2s1 [Example 11, N-{3,10-dithia-5,12-diazatricyclo[7.3.0.0^2,^6]dodeca-1,4,6,8,11-pentaen-4-yl}-1-benzothiophene-2-carboxamide] | ++ (200-399 pg/mL) | 2.4 to 4.9 | − |  |  |  | 
15 | CSc1nc2c(ccc3nc(NC(=O)c4ccc5ccccc5c4)sc32)s1 [Example 19, N-[11-(methylsulfanyl)-3,10-dithia-5,12-diazatricyclo[7.3.0.0^2,^6]dodeca-1,4,6,8,11-pentaen-4-yl]naphthalene-2-carboxamide] |  | 10 to 19 | − |  | +++* (400-799 pg/mL) |  | 
16 | O=C(Nc1nc2ccc3scnc3c2s1)c1ccc(Cl)c(C(F)(F)F)c1 [Example 7, 4-chloro-N-{3,10-dithia-5,12-diazatricyclo[7.3.0.0^2,^6]dodeca-1,4,6,8,11-pentaen-4-yl}-3-(trifluoromethyl)benzamide] | ++++ (800 to 1599 pg/mL) | 2.4 to 4.9 | − |  |  |  | 
17 | O=C(Nc1nc2ccc3scnc3c2s1)c1ccc2cc(OCCCCN3CCOCC3)ccc2c1 [Example 39, N-{3,10-dithia-5,12-diazatricyclo[7.3.0.0^2,^6]dodeca-1,4,6,8,11-pentaen-4-yl}-6-[4-(morpholin-4-yl)butoxy]naphthalene-2-carboxamide] | ++ (200-399 pg/mL) | 5 to 9.9 | − |  |  |  | 
18 | O=C(Nc1nc2ccc3scnc3c2s1)c1cc2ccccc2cc1OCCC1CCOCC1 [Example 27, N-{3,10-dithia-5,12-diazatricyclo[7.3.0.0^2,^6]dodeca-1,4,6,8,11-pentaen-4-yl}-3-[2-(oxan-4-yl)ethoxy]naphthalene-2-carboxamide] | ++ (200-399 pg/mL) |  | − | 5 to 9.9 |  |  | 

From patent US20200055871A1, “ACTIVATORS OF THE RETINOIC ACID INDUCIBLE GENE "RIG-I" PATHWAY AND METHODS OF USE THEREOF” (Kineta Immuno-Oncology LLC, priority 2018, published 2020)
